Measurements from the CombiSolv-Exp solvation set (Vermeire and Green 2021).

Test: solvent given as SMILES

CCCCC
Conditions	solvation free energy, 298 K [kcal/mol]
in BrC(Br)C(Br)Br	-2.06
in Brc1ccccc1	-2.95
in C1=Cc2ccccc2C1	-2.75
in C1CCCCC1	-3.34
in C1CCOC1	-3.22
in C1COCCO1	-2.6
in C=CCCCC	-3.34
in C=CCCCCCC	-3.24
in C=CCCCCCCCC	-3.16
in C=CCCCCCCCCCCCCCC	-2.88
in CC1COC(=O)O1	-1.59
in CC#N	-2.15
in CC(=O)CC(C)C	-2.86
in CC(=O)N(C)C	-2.29
in CC(=O)O	-2.36
in CC(=O)c1ccccc1	-2.43
in CC(C)=O	-2.73
in CC(C)CC(C)(C)C	-3.24
in CC(C)CCCC(C)CCCC(C)CCCCC(C)CCCC(C)CCCC(C)C	-2.8
in CC(C)CCO	-2.82
in CC(C)O	-2.6
in CC(C)OC(C)C	-3.35
in CCBr	-3.45
in CCC#N	-2.59
in CCC(C)=O	-2.82
in CCC(C)O	-2.65
in CCCC#N	-2.48
in CCCC(=O)OCC	-3
in CCCC(C)=O	-2.89
in CCCCC(CC)COC(=O)CCCCC(=O)OCC(CC)CCCC	-2.65
in CCCCC(CC)COC(=O)c1ccccc1C(=O)OCC(CC)CCCC	-2.47
in CCCCCC	-3.36
in CCCCCC(C)=O	-2.92
in CCCCCCC	-3.27
in CCCCCCCC	-3.24
in CCCCCCCCC	-3.18
in CCCCCCCCC=CCCCCCCCC(=O)OCC(COC(=O)CCCCCCCC=CCCCCCCCC)OC(=O)CCCCCCCC=CCCCCCCCC	-2.77
in CCCCCCCCCC	-3.16
in CCCCCCCCCCCC	-3.05
in CCCCCCCCCCCCCC	-2.9
in CCCCCCCCCCCCCCCC	-2.93
in CCCCCCCCCOC(=O)c1ccccc1C(=O)OCCCCCCCCC	-2.55
in CCCCCCCCN(CCCCCCCC)CCCCCCCC	-2.81
in CCCCCCCCO	-2.7
in CCCCCCCO	-2.66
in CCCCCCO	-2.68
in CCCCCCOC(C)=O	-2.96
in CCCCCN(CCCCC)CCCCC	-2.98
in CCCCCO	-2.65
in CCCCCl	-3.22
in CCCCN(C=O)CCCC	-2.59
in CCCCN(CCCC)CCCC	-2.9
in CCCCO	-2.7
in CCCCOC(=O)c1ccccc1C(=O)OCCCC	-2.59
in CCCCOC(C)=O	-2.94
in CCCCOCCCC	-3.19
in CCCO	-2.58
in CCN1CCCC1=O	-2.25
in CCN(CC)C(C)=O	-2.48
in CCN(CC)CC	-3.31
in CCNC(C)=O	-2.35
in CCNC=O	-2.11
in CCO	-2.51
in CCOC(=O)c1ccccc1C(=O)OCC	-2.11
in CCOC(C)=O	-2.85
in CCOCC	-3.3
in CCOCCOCCOCC	-2.79
in CCOc1ccccc1	-2.82
in CN1CCCC1=O	-2.18
in CN1CCCCC1=O	-2.16
in CN1CCN(C)C1=O	-1.88
in CN(C)C=O	-2.18
in CN(C)P(=O)(N(C)C)N(C)C	-2.39
in CNC(C)=O	-2.17
in CNC=O	-1.87
in CO	-2.29
in COC(C)=O	-2.66
in COCCO	-2.16
in COCCOCCOCCOCCOC	-2.2
in COc1ccccc1	-2.76
in CS(C)=O	-1.41
in Cc1ccc(C)cc1	-3.16
in Cc1cccc2ccccc12	-2.63
in Cc1cccc(C)c1	-3.11
in Cc1cccc(O)c1	-2.28
in Cc1ccccc1	-3.15
in Cc1ccccn1	-2.82
in ClC(Cl)(Cl)Cl	-3.32
in ClC(Cl)C(Cl)Cl	-2.77
in ClC(Cl)Cl	-3.23
in ClCCCl	-2.77
in ClCCl	-3.07
in Clc1cccc2ccccc12	-2.5
in Clc1ccccc1	-3.14
in FC(F)(F)C(F)(F)C(F)(F)C(F)(F)C(F)(F)C(F)(F)C(F)(F)C(F)(F)F	-2.06
in FC(F)(F)C(F)(F)C(F)(F)C(F)(F)C(F)(F)C(F)(F)F	-2.15
in Fc1ccccc1	-3.25
in ICI	-1.67
in Ic1ccccc1	-2.61
in N#CCCCCC#N	-1.32
in N#CCc1ccccc1	-1.99
in N#Cc1ccccc1	-2.48
in NC=O	-0.44
in NCCO	-0.27
in Nc1ccccc1	-1.89
in O=C1CCCCC1	-2.73
in O=C1CCCO1	-1.72
in O=C(O)C(Cl)Cl	-2.12
in O=CN1CCOCC1	-1.51
in O=Cc1ccco1	-1.8
in OC1CCCCC1	-2.46
in OCCO	-0.34
in OCCOCCO	-0.86
in OCCc1ccccc1	-2.12
in OCc1ccccc1	-2.06
in OCc1ccco1	-1.67
in S=C=S	-3.29
in c1ccc2ncccc2c1	-2.54
in c1ccccc1	-3.15
in c1ccncc1	-2.64

Cl
Conditions	solvation free energy, 298 K [kcal/mol]
in C=CCCCCCCCCCCCCCC	-0.82
in ClC(Cl)(Cl)Cl	-0.86

CC(C)CCCOC(=O)c1ccccc1C(=O)OCCCC(C)C
Conditions	solvation free energy, 298 K [kcal/mol]
in O	-6.73

c1cc2cccc3c4cccc5cccc(c(c1)c23)c54
Conditions	solvation free energy, 298 K [kcal/mol]
in CCCCCCCCC=CCCCCCCCC(=O)OCC(COC(=O)CCCCCCCC=CCCCCCCCC)OC(=O)CCCCCCCC=CCCCCCCCC	-16.9
in O	-7.83

COC(=O)C1CC1
Conditions	solvation free energy, 298 K [kcal/mol]
in O	-4.1

CCOCCO
Conditions	solvation free energy, 298 K [kcal/mol]
in CCCCCC	-4.01
in CCCCCCC	-3.85
in COC(C)=O	-5.89
in ClC(Cl)(Cl)Cl	-4.87
in ClCCl	-6.06
in O	-6.7

COC(=O)c1cc([N+](=O)[O-])cc([N+](=O)[O-])c1
Conditions	solvation free energy, 298 K [kcal/mol]
in CN(C)C=O	-13.3
in O	-8.92

Cc1c(C)c(C)c(C)c(C)c1C
Conditions	solvation free energy, 298 K [kcal/mol]
in CCCCCCCCO	-8.61
in O	-1.95

CCc1ccncc1
Conditions	solvation free energy, 298 K [kcal/mol]
in O	-4.73

CCCCCCCCCCCCCCCCCCC
Conditions	solvation free energy, 298 K [kcal/mol]
in CC(=O)N(C)C	-12.9
in CCCCOC(C)=O	-12.7
in CCO	-10.8
in O	4.38

Clc1ccc(-c2ccccc2)cc1
Conditions	solvation free energy, 298 K [kcal/mol]
in CCCCCCCCC=CCCCCCCCC(=O)OCC(COC(=O)CCCCCCCC=CCCCCCCCC)OC(=O)CCCCCCCC=CCCCCCCCC	-9.7
in CCCCCCCCO	-9.25
in O	-2.44

CCc1cccc2ccccc12
Conditions	solvation free energy, 298 K [kcal/mol]
in O	-2.3

CC(C)C(=O)CC(=O)C(C)C
Conditions	solvation free energy, 298 K [kcal/mol]
in O	-4.08

N#Cc1cccnc1
Conditions	solvation free energy, 298 K [kcal/mol]
in O	-6.75

CCC(C)(O)C(C)C (configuration not stated)
Conditions	solvation free energy, 298 K [kcal/mol]
in CCCCCCCC	-5.4
in CCCCCCCCCC	-5.34

CCCCCCc1ccccc1
Conditions	solvation free energy, 298 K [kcal/mol]
in CO	-7.13

CN(C)CCC=C1c2ccccc2CCc2ccccc21
Conditions	solvation free energy, 298 K [kcal/mol]
in O	-7.43

Cc1ccccc1C=O
Conditions	solvation free energy, 298 K [kcal/mol]
in O	-3.93
